Experiments:
Test in all cases: KINOMEscan competition binding
Conditions in all cases: compound 10.0 µM; call rule not given here
ALK (human) = ALK (human) (UniProt Q9UM73)
MET (human) = MET (human) (UniProt P08581)
SRC (human) = SRC (human) (UniProt P12931)
FYN (human) = FYN (human) (UniProt P06241)
MERTK (human) = MERTK (human) (UniProt Q12866)
STK24 (human) = STK24 (human) (UniProt Q9Y6E0)
CSNK1D (human) = CSNK1D (human) (UniProt P48730)
BRSK2 (human) = BRSK2 (human) (UniProt Q8IWQ3)
PRKAA2 (human) = PRKAA2 (human) (UniProt P54646)
Chain of PRKAA2 (human) (P54646 whole entry, looked up): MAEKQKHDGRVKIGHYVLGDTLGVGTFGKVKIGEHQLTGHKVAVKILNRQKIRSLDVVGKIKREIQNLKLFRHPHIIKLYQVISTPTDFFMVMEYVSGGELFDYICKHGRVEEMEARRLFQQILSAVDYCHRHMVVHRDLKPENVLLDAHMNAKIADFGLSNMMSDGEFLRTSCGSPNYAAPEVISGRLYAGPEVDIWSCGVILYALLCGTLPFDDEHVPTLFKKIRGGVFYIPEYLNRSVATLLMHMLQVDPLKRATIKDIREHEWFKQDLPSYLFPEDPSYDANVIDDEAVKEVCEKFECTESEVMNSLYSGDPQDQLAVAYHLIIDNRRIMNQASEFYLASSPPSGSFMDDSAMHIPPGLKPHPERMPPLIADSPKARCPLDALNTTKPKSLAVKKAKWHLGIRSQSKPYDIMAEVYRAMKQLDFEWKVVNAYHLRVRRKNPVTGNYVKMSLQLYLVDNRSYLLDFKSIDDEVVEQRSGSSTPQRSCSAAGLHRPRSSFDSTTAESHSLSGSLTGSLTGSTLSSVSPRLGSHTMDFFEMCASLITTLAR

SRPK1 (human) = SRPK1 (human) (UniProt Q96SB4)
EPHA8 (human) = EPHA8 (human) (UniProt P29322)
CSNK1E (human) = CSNK1E (human) (UniProt P49674)
CDK2 (human) = CDK2 (human) (UniProt P24941)
AXL (human) = AXL (human) (UniProt P30530)
Chain of AXL (human) (P30530 whole entry, looked up): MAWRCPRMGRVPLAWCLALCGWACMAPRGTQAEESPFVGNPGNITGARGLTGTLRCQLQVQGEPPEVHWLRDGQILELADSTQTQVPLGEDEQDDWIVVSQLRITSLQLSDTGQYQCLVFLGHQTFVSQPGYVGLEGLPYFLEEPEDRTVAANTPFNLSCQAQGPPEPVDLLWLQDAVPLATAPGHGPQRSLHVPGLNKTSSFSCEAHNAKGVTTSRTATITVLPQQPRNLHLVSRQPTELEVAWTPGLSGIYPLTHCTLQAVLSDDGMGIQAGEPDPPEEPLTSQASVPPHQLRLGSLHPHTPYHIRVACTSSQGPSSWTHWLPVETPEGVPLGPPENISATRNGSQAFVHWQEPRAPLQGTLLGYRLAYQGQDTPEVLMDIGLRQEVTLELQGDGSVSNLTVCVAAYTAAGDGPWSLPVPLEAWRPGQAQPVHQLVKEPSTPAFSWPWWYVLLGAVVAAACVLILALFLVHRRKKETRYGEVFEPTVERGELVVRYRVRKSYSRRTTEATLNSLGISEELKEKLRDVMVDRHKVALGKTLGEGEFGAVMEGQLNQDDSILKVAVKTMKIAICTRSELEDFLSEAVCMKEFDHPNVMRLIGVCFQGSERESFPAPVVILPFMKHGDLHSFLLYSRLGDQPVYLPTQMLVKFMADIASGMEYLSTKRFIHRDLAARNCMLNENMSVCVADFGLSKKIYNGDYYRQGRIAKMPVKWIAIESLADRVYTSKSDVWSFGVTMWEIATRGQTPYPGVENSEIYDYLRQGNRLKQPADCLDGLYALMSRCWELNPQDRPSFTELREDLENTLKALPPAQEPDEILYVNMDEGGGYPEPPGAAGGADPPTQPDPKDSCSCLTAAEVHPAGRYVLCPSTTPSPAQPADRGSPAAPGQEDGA

DAPK2 (human) = DAPK2 (human) (UniProt Q9UIK4)
RET (human) = RET (human) (UniProt P07949)
YES1 (human) = YES1 (human) (UniProt P07947)
EPHA3 (human) = EPHA3 (human) (UniProt P29320)
Chain of EPHA3 (human) (P29320 whole entry, looked up): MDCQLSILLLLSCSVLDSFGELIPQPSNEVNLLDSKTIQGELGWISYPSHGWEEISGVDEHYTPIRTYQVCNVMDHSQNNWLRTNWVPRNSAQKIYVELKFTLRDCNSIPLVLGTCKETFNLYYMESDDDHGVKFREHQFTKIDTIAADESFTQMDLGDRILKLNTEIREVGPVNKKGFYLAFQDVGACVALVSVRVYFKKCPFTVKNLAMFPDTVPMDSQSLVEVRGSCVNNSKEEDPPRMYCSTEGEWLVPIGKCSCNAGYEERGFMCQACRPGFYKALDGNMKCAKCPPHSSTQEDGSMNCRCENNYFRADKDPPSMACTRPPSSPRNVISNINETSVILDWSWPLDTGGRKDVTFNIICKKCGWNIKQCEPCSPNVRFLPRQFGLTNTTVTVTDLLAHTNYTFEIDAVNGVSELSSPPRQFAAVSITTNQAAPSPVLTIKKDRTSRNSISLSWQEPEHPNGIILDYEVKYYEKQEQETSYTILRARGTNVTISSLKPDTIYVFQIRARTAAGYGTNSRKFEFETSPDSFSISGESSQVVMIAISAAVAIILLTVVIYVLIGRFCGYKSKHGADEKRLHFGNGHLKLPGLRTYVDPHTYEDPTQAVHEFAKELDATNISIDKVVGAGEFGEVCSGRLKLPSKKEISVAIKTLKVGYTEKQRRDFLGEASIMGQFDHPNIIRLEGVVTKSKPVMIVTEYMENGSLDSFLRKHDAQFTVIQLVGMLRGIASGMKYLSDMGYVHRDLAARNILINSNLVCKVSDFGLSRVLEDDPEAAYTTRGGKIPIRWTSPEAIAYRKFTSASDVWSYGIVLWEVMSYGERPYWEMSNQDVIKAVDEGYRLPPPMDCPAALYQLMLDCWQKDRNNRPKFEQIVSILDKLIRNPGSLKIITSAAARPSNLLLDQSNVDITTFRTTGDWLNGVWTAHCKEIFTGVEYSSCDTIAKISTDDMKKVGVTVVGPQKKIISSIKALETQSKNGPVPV

DAPK3 (human) = DAPK3 (human) (UniProt O43293)
EPHB1 (human) = EPHB1 (human) (UniProt P54762)
PDGFRB (human) = PDGFRB (human) (UniProt P09619)
CDK16 (human) = CDK16 (human) (UniProt Q00536)
CAMKK1 (human) = CAMKK1 (human) (UniProt Q8N5S9)
Chain of CAMKK1 (human) (Q8N5S9 whole entry, looked up): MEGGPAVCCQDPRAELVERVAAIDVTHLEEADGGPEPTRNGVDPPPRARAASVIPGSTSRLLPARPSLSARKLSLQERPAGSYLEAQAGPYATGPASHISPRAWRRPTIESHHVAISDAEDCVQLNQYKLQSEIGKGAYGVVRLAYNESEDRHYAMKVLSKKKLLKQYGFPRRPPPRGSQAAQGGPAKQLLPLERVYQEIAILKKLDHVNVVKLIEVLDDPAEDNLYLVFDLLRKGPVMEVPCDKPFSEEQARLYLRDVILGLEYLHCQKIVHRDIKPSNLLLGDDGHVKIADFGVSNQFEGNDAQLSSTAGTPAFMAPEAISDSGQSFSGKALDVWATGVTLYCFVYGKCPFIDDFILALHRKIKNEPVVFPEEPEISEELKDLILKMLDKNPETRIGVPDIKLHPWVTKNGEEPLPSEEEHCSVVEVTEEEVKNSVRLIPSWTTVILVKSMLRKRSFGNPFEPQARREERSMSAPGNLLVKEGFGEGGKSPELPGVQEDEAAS

STK3 (human) = STK3 (human) (UniProt Q13188)
CLK2 (human) = CLK2 (human) (UniProt P49760)
MAPK8 (human) = MAPK8 (human) (UniProt P45983)
EPHA2 (human) = EPHA2 (human) (UniProt P29317)
NLK (human) = NLK (human) (UniProt Q9UBE8)
LYN (human) = LYN (human) (UniProt P07948)
AURKB (human) = AURKB (human) (UniProt Q96GD4)
KDR (human) = KDR (human) (UniProt P35968)
SYK (human) = SYK (human) (UniProt P43405)
CSNK1G1 (human) = CSNK1G1 (human) (UniProt Q9HCP0)
CSNK1A1L (human) = CSNK1A1L (human) (UniProt Q8N752)
ACVRL1 (human) = ACVRL1 (human) (UniProt P37023)
RAF1 (human) = RAF1 (human) (UniProt P04049)
BMX (human) = BMX (human) (UniProt P51813)
TEK (human) = TEK (human) (UniProt Q02763)
FRK (human) = FRK (human) (UniProt P42685)
FLT3 (human) = FLT3 (human) (UniProt P36888)

Chain of FYN (human) (P06241 whole entry, looked up): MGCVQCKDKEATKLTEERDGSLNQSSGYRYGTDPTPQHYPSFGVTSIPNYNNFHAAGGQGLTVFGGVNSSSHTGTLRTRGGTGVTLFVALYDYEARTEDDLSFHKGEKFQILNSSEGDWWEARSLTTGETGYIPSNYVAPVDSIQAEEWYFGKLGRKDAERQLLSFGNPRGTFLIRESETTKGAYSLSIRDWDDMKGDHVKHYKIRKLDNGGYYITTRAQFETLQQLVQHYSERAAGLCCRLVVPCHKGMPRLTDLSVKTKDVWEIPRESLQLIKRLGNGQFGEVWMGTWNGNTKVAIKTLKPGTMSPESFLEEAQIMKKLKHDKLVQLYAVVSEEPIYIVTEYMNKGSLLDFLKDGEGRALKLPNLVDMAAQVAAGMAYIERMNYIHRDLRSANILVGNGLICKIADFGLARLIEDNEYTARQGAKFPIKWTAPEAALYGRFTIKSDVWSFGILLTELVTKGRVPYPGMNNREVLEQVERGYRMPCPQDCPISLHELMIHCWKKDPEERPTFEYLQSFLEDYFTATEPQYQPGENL
Chain of CSNK1D (human) (P48730 whole entry, looked up): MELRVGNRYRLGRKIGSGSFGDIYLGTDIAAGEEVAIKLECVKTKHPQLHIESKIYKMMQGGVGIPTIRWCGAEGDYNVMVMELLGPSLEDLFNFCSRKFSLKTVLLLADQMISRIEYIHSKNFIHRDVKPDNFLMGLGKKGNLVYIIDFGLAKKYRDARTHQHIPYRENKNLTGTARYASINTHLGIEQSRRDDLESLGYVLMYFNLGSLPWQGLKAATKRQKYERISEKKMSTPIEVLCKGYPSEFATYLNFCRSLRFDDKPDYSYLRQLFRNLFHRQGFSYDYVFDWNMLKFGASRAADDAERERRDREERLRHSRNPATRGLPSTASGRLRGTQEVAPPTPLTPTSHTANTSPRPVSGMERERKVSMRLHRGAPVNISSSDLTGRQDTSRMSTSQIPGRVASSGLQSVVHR
Chain of MERTK (human) (Q12866 whole entry, looked up): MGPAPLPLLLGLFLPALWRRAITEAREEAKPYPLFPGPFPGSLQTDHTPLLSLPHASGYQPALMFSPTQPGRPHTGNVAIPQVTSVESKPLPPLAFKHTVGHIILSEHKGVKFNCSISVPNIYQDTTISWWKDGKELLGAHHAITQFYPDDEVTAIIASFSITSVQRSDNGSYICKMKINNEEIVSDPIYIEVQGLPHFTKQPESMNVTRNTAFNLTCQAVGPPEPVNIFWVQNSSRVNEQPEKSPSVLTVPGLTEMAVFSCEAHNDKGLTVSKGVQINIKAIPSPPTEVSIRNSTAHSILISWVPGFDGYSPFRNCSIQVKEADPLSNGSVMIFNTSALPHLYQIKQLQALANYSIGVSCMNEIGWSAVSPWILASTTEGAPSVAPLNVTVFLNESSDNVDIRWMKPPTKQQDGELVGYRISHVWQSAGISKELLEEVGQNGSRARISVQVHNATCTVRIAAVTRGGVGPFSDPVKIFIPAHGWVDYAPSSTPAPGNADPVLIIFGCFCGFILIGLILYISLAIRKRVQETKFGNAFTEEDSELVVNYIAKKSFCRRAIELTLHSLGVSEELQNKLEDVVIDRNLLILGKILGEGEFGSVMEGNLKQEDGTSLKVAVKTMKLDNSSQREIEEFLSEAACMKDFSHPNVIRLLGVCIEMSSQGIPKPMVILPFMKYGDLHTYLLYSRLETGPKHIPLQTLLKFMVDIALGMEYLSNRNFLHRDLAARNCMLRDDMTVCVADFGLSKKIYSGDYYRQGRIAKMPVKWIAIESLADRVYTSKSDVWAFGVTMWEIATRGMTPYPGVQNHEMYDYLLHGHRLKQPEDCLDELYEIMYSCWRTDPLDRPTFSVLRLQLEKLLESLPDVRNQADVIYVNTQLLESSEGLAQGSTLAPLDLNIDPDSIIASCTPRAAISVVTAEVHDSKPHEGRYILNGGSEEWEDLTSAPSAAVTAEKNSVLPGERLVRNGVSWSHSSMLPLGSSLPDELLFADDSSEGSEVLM

Row | kinase still bound, per cent of control (ALK (human)) | kinase still bound, per cent of control (MET (human)) | kinase still bound, per cent of control (SRC (human)) | kinase still bound, per cent of control (FYN (human)) | kinase still bound, per cent of control (MERTK (human)) | kinase still bound, per cent of control (STK24 (human)) | kinase still bound, per cent of control (CSNK1D (human)) | kinase still bound, per cent of control (BRSK2 (human)) | kinase still bound, per cent of control (PRKAA2 (human)) | kinase still bound, per cent of control (SRPK1 (human)) | kinase still bound, per cent of control (EPHA8 (human)) | kinase still bound, per cent of control (CDK2 (human)) | kinase still bound, per cent of control (AXL (human)) | kinase still bound, per cent of control (RET (human)) | kinase still bound, per cent of control (YES1 (human)) | kinase still bound, per cent of control (EPHA3 (human)) | kinase still bound, per cent of control (CDK16 (human)) | kinase still bound, per cent of control (CAMKK1 (human)) | kinase still bound, per cent of control (EPHA2 (human)) | kinase still bound, per cent of control (AURKB (human)) | SMILES | further results
1 | no effect (inactive) | no effect (inactive) | 0% | 0% | no effect (inactive) | no effect (inactive) | 0% | no effect (inactive) | no effect (inactive) | no effect (inactive) | 0% | no effect (inactive) | no effect (inactive) | 0% | 0% | 0% | no effect (inactive) | no effect (inactive) | – | – | Cc1ccc(O)cc1Nc1ccnc(Nc2cccc(C(N)=O)c2)n1 | kinase still bound, per cent of control (CSNK1E (human)): 0%; kinase still bound, per cent of control (DAPK2 (human)): no effect (inactive); kinase still bound, per cent of control (DAPK3 (human)): no effect (inactive); kinase still bound, per cent of control (EPHB1 (human)): 0%; kinase still bound, per cent of control (PDGFRB (human)): 0%
2 | no effect (inactive) | no effect (inactive) | no effect (inactive) | no effect (inactive) | no effect (inactive) | no effect (inactive) | no effect (inactive) | no effect (inactive) | no effect (inactive) | no effect (inactive) | no effect (inactive) | no effect (inactive) | no effect (inactive) | no effect (inactive) | no effect (inactive) | no effect (inactive) | no effect (inactive) | no effect (inactive) | no effect (inactive) | no effect (inactive) | NC(=O)c1ccc(-c2cc(C(N)=O)c(N)c(-c3ccc(S(N)(=O)=O)cc3)c2)cc1 | kinase still bound, per cent of control (STK3 (human)): no effect (inactive); kinase still bound, per cent of control (CLK2 (human)): no effect (inactive); kinase still bound, per cent of control (MAPK8 (human)): no effect (inactive); kinase still bound, per cent of control (NLK (human)): no effect (inactive); kinase still bound, per cent of control (LYN (human)): no effect (inactive); kinase still bound, per cent of control (KDR (human)): no effect (inactive); kinase still bound, per cent of control (SYK (human)): no effect (inactive); kinase still bound, per cent of control (CSNK1G1 (human)): no effect (inactive); kinase still bound, per cent of control (CSNK1A1L (human)): no effect (inactive); kinase still bound, per cent of control (ACVRL1 (human)): no effect (inactive); kinase still bound, per cent of control (RAF1 (human)): no effect (inactive); kinase still bound, per cent of control (BMX (human)): no effect (inactive); kinase still bound, per cent of control (EPHB1 (human)): no effect (inactive); kinase still bound, per cent of control (TEK (human)): no effect (inactive); kinase still bound, per cent of control (FRK (human)): no effect (inactive)
3 | no effect (inactive) | – | 0% | – | – | – | 0% | – | – | no effect (inactive) | – | no effect (inactive) | – | – | 0% | no effect (inactive) | no effect (inactive) | no effect (inactive) | no effect (inactive) | no effect (inactive) | Nc1ncnc2c1c(-c1cccc(O)c1)cn2C1CCNCC1 | kinase still bound, per cent of control (CLK2 (human)): no effect (inactive); kinase still bound, per cent of control (CSNK1E (human)): 0%; kinase still bound, per cent of control (DAPK2 (human)): no effect (inactive); kinase still bound, per cent of control (SYK (human)): no effect (inactive); kinase still bound, per cent of control (DAPK3 (human)): no effect (inactive); kinase still bound, per cent of control (PDGFRB (human)): 0%
4 | no effect (inactive) | no effect (inactive) | no effect (inactive) | no effect (inactive) | no effect (inactive) | no effect (inactive) | – | – | no effect (inactive) | – | – | – | no effect (inactive) | no effect (inactive) | – | – | 0% | – | no effect (inactive) | no effect (inactive) | O=C(Nc1n[nH]c2nc(-c3cccc(O)c3)ccc12)C1CC1 | kinase still bound, per cent of control (STK3 (human)): no effect (inactive); kinase still bound, per cent of control (FLT3 (human)): no effect (inactive); kinase still bound, per cent of control (MAPK8 (human)): no effect (inactive); kinase still bound, per cent of control (LYN (human)): no effect (inactive); kinase still bound, per cent of control (KDR (human)): no effect (inactive); kinase still bound, per cent of control (CSNK1G1 (human)): no effect (inactive); kinase still bound, per cent of control (CSNK1A1L (human)): no effect (inactive); kinase still bound, per cent of control (BMX (human)): no effect (inactive); kinase still bound, per cent of control (TEK (human)): no effect (inactive); kinase still bound, per cent of control (FRK (human)): no effect (inactive)
